This passage reports Ki and IC50 results from patent publication US20240391936A1, “TETRAHYDROTHIENO PYRIDINE DERIVATIVES AS DDRS INHIBITORS” (CHIESI FARMACEUTICI S.P.A., priority 2021, published 2024).

Usually Ki stands for a measure of affinity in units of concentration, obtained from inhibition or displacement. As usually defined, the IC50 is the concentration at which inhibition is half-maximal. Low readings indicate inhibition by little substance, high ones a need for much substance.

The target of one test is T1, DDR2 (Homo sapiens, UniProt Q16832).
T1 sequence (Q16832 22-855): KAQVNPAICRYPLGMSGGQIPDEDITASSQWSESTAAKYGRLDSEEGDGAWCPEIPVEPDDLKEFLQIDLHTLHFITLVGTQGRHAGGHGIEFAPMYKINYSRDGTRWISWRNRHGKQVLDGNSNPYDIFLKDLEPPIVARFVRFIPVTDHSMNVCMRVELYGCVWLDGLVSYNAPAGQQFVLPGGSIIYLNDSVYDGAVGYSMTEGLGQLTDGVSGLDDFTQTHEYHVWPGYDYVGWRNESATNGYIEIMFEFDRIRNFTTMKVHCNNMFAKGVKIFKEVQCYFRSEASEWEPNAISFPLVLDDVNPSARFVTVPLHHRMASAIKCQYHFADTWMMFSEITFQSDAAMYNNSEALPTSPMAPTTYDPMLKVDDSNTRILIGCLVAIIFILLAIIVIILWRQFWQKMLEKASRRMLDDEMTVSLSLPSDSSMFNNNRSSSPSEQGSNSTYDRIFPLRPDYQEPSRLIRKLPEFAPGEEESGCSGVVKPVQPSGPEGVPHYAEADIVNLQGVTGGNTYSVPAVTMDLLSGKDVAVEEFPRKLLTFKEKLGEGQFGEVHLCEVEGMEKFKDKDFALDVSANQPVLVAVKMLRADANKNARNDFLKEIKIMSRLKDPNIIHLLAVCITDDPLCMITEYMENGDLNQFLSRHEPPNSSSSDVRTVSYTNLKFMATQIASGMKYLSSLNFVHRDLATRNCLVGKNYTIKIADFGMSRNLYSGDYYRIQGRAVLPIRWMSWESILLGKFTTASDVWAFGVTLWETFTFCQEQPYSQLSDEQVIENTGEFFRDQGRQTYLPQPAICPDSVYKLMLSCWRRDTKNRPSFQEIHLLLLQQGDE
In words: DDR2 binding assay (LanthaScreen Europium Kinase Binding assay). Set-up: purchased Life Technologies. How it is done: (§1) DDR1 and DDR2 binding assays were performed using Life Technologies LanthaScreen™ Europium Kinase Binding assay. The compounds were incubated with 5 nM DDR1 (Carna Biosciences) or 5 nM DDR2 (Life Technologies) for 1 hour at room temperature in white 384-well OptiPlate (PerkinElmer), containing 20 nM or 10 nM Kinase Tracer 178 respectively and 2 nM Europium labelled anti-GST antibody (Life Technologies) in assay buffer (50 mM HEPES pH 7.5, 10 mM MgCl2, 1 mM EGTA and 0.01% BRIJ35).
(§2) The ratio of fluorescence emission 665 nm/615 nm after excitation at 340 nm was obtained using the Tecan Spark 20M plate reader. IC50 values were determined in GraphPad Prism 7.0 software, using 4 parameter model: log(inhibitor) vs. response. IC50 values were converted in Ki using the Cheng-Prusoff equation

Test [1] concerns the target T2, DDR1 (Homo sapiens, UniProt Q08345). In words: DDR1 cell based assay (PathHunter U2OS DDR1 assay). Set-up: host or cells: U2OS-DDR1 (PathHunter). The following applies: U2OS-DDR1 cells, bovine Type II Collagen 20 μg/ml. How it is done:
The inhibition of DDR1 receptor activation by compounds was evaluated by PathHunter® U2OS DDR1 assay (Eurofins DiscoverX), according to the manufacturer's instructions. Briefly, U2OS-DDR1 cells were seeded in white 384-well plates at a density of 5000 cells/well and incubated for 2 hours at 37° C. and 5% CO2. Cells were then treated with compounds at different concentrations and incubated for 30 minutes, before stimulation with bovine Type II Collagen 20 μg/ml and incubation overnight at 37° C. and 5% CO2. PathHunter Detection Reagents were prepared according to the protocol provided by DiscoverX and 20 μl/well of this mix were added to each well. After incubating the plates for 1 hour at room temperature in the dark, luminescence signal was acquired with a plate reader. Raw data were normalized to vehicle control (0% for normalization) and positive control (100% for normalization; cells treated with 20 μg/ml collagen II) and IC50 parameters were calculated in GraphPad Prism 8.0 software, using sigmoidal dose-response curve fitting with variable slope.

The target in test [2] is T2, DDR1. In words: DDR1 binding assay (LanthaScreen Europium Kinase Binding assay). Set-up: purchased Carna Biosciences. How it is done: as §1, §2
In general terms: Time-resolved FRET reads energy transfer from a long-lived donor to a nearby acceptor.

[3] abbreviates: binding assay, 5 nM DDR2, 10 nM Kinase Tracer 178, Ki from IC50 by Cheng-Prusoff, read-out: Ki DDR2.
The mark [4] stands for this setting: binding assay, 5 nM DDR1, 20 nM Kinase Tracer 178, Ki from IC50 by Cheng-Prusoff, read-out: Ki DDR1.
[5] abbreviates: 5 nM DDR2, 10 nM Kinase Tracer 178, 1 hour at room temperature, IC50 converted in Ki using the Cheng-Prusoff equation, read-out: DDR2 Ki.
Where [6] appears, read: 5 nM DDR1, 20 nM Kinase Tracer 178, 1 hour at room temperature, IC50 converted in Ki using the Cheng-Prusoff equation, read-out: DDR1 Ki.

Read-outs that look alike come from different tables or passages of the source.

T2 sequence (Q08345 19-913): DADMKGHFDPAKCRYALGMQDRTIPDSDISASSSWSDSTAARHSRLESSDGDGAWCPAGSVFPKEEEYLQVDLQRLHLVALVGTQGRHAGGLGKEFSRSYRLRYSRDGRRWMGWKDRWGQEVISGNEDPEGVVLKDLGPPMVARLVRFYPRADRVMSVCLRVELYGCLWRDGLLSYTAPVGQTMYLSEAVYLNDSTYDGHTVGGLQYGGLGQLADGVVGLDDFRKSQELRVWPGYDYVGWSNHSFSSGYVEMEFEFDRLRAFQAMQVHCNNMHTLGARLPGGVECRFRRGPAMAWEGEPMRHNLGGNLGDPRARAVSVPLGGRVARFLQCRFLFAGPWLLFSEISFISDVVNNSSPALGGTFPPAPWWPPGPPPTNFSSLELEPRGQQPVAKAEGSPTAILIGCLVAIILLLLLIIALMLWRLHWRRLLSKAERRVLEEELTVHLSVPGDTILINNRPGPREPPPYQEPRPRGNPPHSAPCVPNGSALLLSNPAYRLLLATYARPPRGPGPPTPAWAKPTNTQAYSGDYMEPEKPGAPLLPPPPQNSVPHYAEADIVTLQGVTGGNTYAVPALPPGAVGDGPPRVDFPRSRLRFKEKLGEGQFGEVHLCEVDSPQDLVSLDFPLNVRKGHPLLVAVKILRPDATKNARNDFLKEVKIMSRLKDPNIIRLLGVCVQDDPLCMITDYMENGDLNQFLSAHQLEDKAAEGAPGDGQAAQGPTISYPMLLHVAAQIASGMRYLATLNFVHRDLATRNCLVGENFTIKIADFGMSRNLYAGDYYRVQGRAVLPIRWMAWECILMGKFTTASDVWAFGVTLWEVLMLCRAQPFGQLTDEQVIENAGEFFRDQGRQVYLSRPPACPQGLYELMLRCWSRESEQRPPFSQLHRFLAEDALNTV

Regarding `O=C(Nc1cncc(C(F)(F)F)c1)c1csc2c1CCN(C(=O)c1cnc3n1CCOC3)C2` [Example 110, 6-(5,6-dihydro-8H-imidazo[2,1-c][1,4]oxazine-3-carbonyl)-N-(5-(trifluoromethyl)pyridin-3-yl)-4,5,6,7-tetrahydrothieno[2,3-c]pyridine-3-carboxamide], the Ki on DDR2 (setting [3]) and on DDR1 [2] (setting [4]) was below 25 nM throughout. Further, the 50% inhibitory concentration (IC50) on DDR1 [1] was in the range of 25 to 50 nM.
Turning to `O=C(Nc1cc(C(F)(F)F)ccn1)c1csc2c1CCN(C(=O)c1cnc3ccccn13)C2` [Example 29, 6-(imidazo[1,2-a]pyridine-3-carbonyl)-N-(4-(trifluoromethyl)pyridin-2-yl)-4,5,6,7-tetrahydrothieno[2,3-c]pyridine-3-carboxamide], the Ki on DDR2 (setting [3]) and at DDR1 [2] (setting [4]) was below 25 nM in each case. In addition, at DDR1 [1], the IC50 lay in the range of 50 to 80 nM.
Regarding `CN1CCN(c2ccc3ncc(C(=O)N4CCc5c(C(=O)Nc6cc(C(C)(C)C)no6)csc5C4)n3c2)CC1` [Example 168, N-(3-(tert-butyl)isoxazol-5-yl)-6-(6-(4-methylpiperazin-1-yl)imidazo[1,2-a]pyridine-3-carbonyl)-4,5,6,7-tetrahydrothieno[2,3-c]pyridine-3-carboxamide], the Ki on DDR2 (setting [3]) and at DDR1 [2] (setting [4]) was below 25 nM each time. Further, the IC50 at DDR1 [1] lay within 25 to 50 nM.
Turning to `CN1CCN(c2cc(NC(=O)c3csc4c3CCN(C(=O)c3cnc5ccccn35)C4)cc(C(F)(F)F)c2)CC1` [Example 177, 6-(imidazo[1,2-a]pyridine-3-carbonyl)-N-(3-(4-methylpiperazin-1-yl)-5-(trifluoromethyl)phenyl)-4,5,6,7-tetrahydrothieno [2,3-c]pyridine-3-carboxamide], the Ki on DDR2 (setting [3]) and at DDR1 [2] (setting [4]) was below 25 nM each time. The half-inhibitory concentration (IC50) at DDR1 [1] is 50 to 80 nM.
Consider `O=C(Nc1cc(OCCN2CCCC2)cc(C(F)(F)F)c1)c1csc2c1CCN(Cc1cnc3[nH]ncc3c1)C2` [Example 164, 6-((1H-pyrazolo[3,4-b]pyridin-5-yl)methyl)-N-(3-(2-(pyrrolidin-1-yl)ethoxy)-5-(trifluoromethyl)phenyl)-4,5,6,7-tetrahydrothieno[2,3-c]pyridine-3-carboxamide], for which the inhibition constant Ki on DDR2 (setting [3]) and on DDR1 [2] (setting [4]) was below 25 nM throughout. This compound also displayed an IC50 on DDR1 [1] below 25 nM.
`CC(C)(C)c1cc(NC(=O)c2csc3c2CCN(C(=O)c2cnc4ccccn24)C3)no1` [Example 33, N-(5-(tert-butyl)isoxazol-3-yl)-6-(imidazo[1,2-a]pyridine-3-carbonyl)-4,5,6,7-tetrahydrothieno[2,3-c]pyridine-3-carboxamide]: the inhibition constant (Ki) on DDR2 (setting [3]) and on DDR1 [2] (setting [4]) was below 25 nM in each case. For the same compound, the IC50 on DDR1 [1] was 25 to 50 nM.
Take `CC(=O)N1CCN(Cc2cc(NC(=O)c3csc4c3CCN(C(=O)c3cnc5ccccn35)C4)cc(C(F)(F)F)c2)CC1` [Example 58, N-(3-((4-acetylpiperazin-1-yl)methyl)-5-(trifluoromethyl)phenyl)-6-(imidazo[1,2-a]pyridine-3-carbonyl)-4,5,6,7-tetrahydrothieno[2,3-c]pyridine-3-carboxamide]: the Ki at DDR2 (setting [3]) and on DDR1 [2] (setting [4]) was below 25 nM each time. This compound also came in with a 50% inhibitory concentration (IC50) on DDR1 [1] of 25 to 50 nM.
For the compound `CN(C)Cc1ccc(NC(=O)c2csc3c2CCN(C(=O)c2cnn4ccncc24)C3)cc1C(F)(F)F` [Example 171, N-(4-((dimethylamino)methyl)-3-(trifluoromethyl)phenyl)-6-(pyrazolo[1,5-a]pyrazine-3-carbonyl)-4,5,6,7-tetrahydro thieno[2,3-c]pyridine-3-carboxamide], the Ki on DDR2 (setting [3]) and at DDR1 [2] (setting [4]) was below 25 nM throughout. This compound registered an IC50 on DDR1 [1] of 50 to 80 nM.
In the case of `O=C(Nc1cccc(C(F)(F)F)c1)c1csc2c1CCN(C(=O)c1cnc3cc(OCCN4CCOCC4)ccn13)C2` [Example 139, 6-(7-(2-morpholinoethoxy)imidazo[1,2-a]pyridine-3-carbonyl)-N-(3-(trifluoromethyl)phenyl)-4,5,6,7-tetrahydrothieno[2,3-c]pyridine-3-carboxamide], the inhibition constant (Ki) at DDR2 (setting [3]) and at DDR1 [2] (setting [4]) was below 25 nM throughout. This compound showed a half-inhibitory concentration (IC50) against DDR1 [1] of 25 to 50 nM.
As to `CC(F)(F)c1cncc(NC(=O)c2csc3c2CCN(C(=O)c2cnn4ccncc24)C3)c1` [Example 122, N-(5-(1,1-difluoroethyl)pyridin-3-yl)-6-(pyrazolo[1,5-a]pyrazine-3-carbonyl)-4,5,6,7-tetrahydrothieno[2,3-c]pyridine-3-carboxamide], the inhibitory constant (Ki) on DDR2 (setting [3]) and at DDR1 [2] (setting [4]) was below 25 nM in each case. The IC50 on DDR1 [1] was in the range of 50 to 80 nM.
On to `CN(C)[C@@H]1CCN(Cc2cc(NC(=O)c3csc4c3CCN(Cc3cnc5ccnn5c3)C4)cc(C(F)(F)F)c2)C1` [Example 161, (R)-N-(3-((3-(dimethylamino)pyrrolidin-1-yl)methyl)-5-(trifluoromethyl)phenyl)-6-(pyrazolo[1,5-a]pyrimidin-6-ylmethyl)-4,5,6,7-tetrahydrothieno[2,3-c]pyridine-3-carboxamide], for which the Ki on DDR2 (setting [3]) and at DDR1 [2] (setting [4]) was below 25 nM throughout. The IC50 at DDR1 [1] fell in the range of 25 to 50 nM.
For `CN(C)[C@H]1CCN(Cc2cc(NC(=O)c3csc4c3CCN(C(=O)c3cnc5ccccn35)C4)cc(C(F)(F)F)c2)C1` [Example 44, (S)-N-(3-((3-(dimethylamino)pyrrolidin-1-yl)methyl)-5-(trifluoromethyl)phenyl)-6-(imidazo[1,2-a]pyridine-3-carbonyl)-4,5,6,7-tetrahydrothieno[2,3-c]pyridine-3-carboxamide], the Ki on DDR2 (setting [3]) and on DDR1 [2] (setting [4]) was below 25 nM each time. This compound also gave a concentration for half-maximal inhibition (IC50) at DDR1 [1] of 25 to 50 nM.
With `O=C(Nc1cc(OCCN2CCCC2)cc(C(F)(F)F)c1)c1csc2c1CCN(C(=O)c1cnc3ccccn13)C2` [Example 26, 6-(imidazo[1,2-a]pyridine-3-carbonyl)-N-(3-(2-(pyrrolidin-1-yl)ethoxy)-5-(trifluoromethyl)phenyl)-4,5,6,7-tetrahydrothieno[2,3-c]pyridine-3-carboxamide], the Ki at DDR2 (setting [3]) and on DDR1 [2] (setting [4]) was below 25 nM each time. On DDR1 [1], the IC50 is 25 to 50 nM.
Take `CN1CCN(Cc2cc(NC(=O)c3cc4c(s3)CCN(C(=O)c3cnc5ccccn35)C4)cc(C(F)(F)F)c2)CC1` [Example C2, 5-(imidazo[1,2-a]pyridine-3-carbonyl)-N-(3-((4-methylpiperazin-1-yl)methyl)-5-(trifluoromethyl)phenyl)-4,5,6,7-tetrahydrothieno[3,2-c]pyridine-2-carboxamide]: the Ki amounted to 160 nM on DDR2 (setting [5]) and 195 nM at DDR1 [2] (setting [6]).
With `CN1CCN(Cc2cc(NC(=O)c3cc4c(s3)CN(C(=O)c3cnc5ccccn35)CC4)cc(C(F)(F)F)c2)CC1` [Example C1, 6-(imidazo[1,2-a]pyridine-3-carbonyl)-N-(3-((4-methylpiperazin-1-yl)methyl)-5-(trifluoromethyl)phenyl)-4,5,6,7-tetrahydrothieno[2,3-c]pyridine-2-carboxamide], the inhibition constant Ki at DDR2 (setting [5]) stood at 531 nM; at DDR1 [2] (setting [6]), 312 nM.
